In patent US4175125A, “Method for treating methicillin resistant staphylococcus aureus” (Eli Lilly and Company, priority 1978, dated 1979):
Structures can show the parent of a compound that is named as a salt. Where two headings read alike, the source gives them in different places.

Tests used:
[1] = tested on: methicillin-resistant Staphylococcus aureus; experiment: Gradient plate test (MIC) against methicillin-resistant Staphylococcus aureus; assay type: cell-based; details: Staphylococcus aureus, read-out: minimum inhibitory concentration (MIC)
Protocol: The method used is essentially that described by Bryson and Szybalski in 1952 (Science 116:45-46). The inoculum treatment method used for penicillin resistant Staphylococci was reported by Godzeski et al in Antimicrobial Agents and Chemotherapy, May, 1969, pp. 547-554.
A standard Falcon square plastic petri dish is used. A layer of agar (10 ml.) is poured into one of the square dishes, the dish tipped 5 mm. off the horizontal, and the agar layer allowed to harden in this position. This bottom layer of agar contains the antibiotic, the serum, and/or other material to be tested. The medium is Difco Penassay Agar containing 2 percent agar. We routinely used 4 ml. of human or horse serum for "serum-inactivation" testing. […] Therefore, serum is routinely added only to the bottom layer.
After the bottom, slanted layer of agar medium has hardened, the plate is placed flat and another 10 ml. of medium added and allowed to harden.
The inoculum of resistant Staphylococci, as described, is prepared by diluting the water suspension 1/50 in 0.25 percent agar in sterile water or saline. For Gram negative organisms, an overnight broth culture is diluted 1/50 in the 0.25 percent agar-water. This dilution is thoroughly shaken to evenly suspend the bacteria. To streak the plate, we use a 1 ml. pipet containing an aliquot of the final […] agar dilution. After a little practice, a smooth even stroke of inoculum can be laid down very rapidly. The trick is in the smoothness of the streak--it must be accomplished uniformly and quickly.
After 24 hours incubation at 35°-37° C. the plates are read by simply measuring the length of bacterial growth as a percentage of the entire streak distance which is then converted to the percent of antibiotic concentration in the plate.
Average values of duplicate measurements are calculated and the M.I.C.'s reported are average of 2 streaks on the plate and from 2 to 3 duplicate plates. Eight streaks can be easily placed on each plate. If sharp end points are not obtained, the middle concentration between the beginning of inhibition of the streak to the end of growth is measured. The concentration of the antibiotic under examination is varied from plate to plate in a series as follows: […]
This method of screening penicillins and cephalosporins is quite satisfactory. Control plates containing penicillin and staphcillin or prostaphlin, or other control antibiotic, are used daily for the resistant staphylococcal activity screen. The gradient plate method has shown differences between antibiotics that were not apparent by any other methods of screening. […] We believe that the gradient plate screen is more sensitive to small differences between related antibiotics than other methods and pictures of the plates can provide a permanent record. The method also lends itself readily to modification of specific purposes--e.g., cross gradients.
The compounds listed below are examples of compounds useful in the method of this invention. After the compound name there is given in parentheses, where tested, the minimum inhibitory concentrations (MIC) in micrograms per milliliter (μg/ml) for the compound in the above described gradient plate procedure test against methicillin-resistant Staphylococcus aureus, (in the absence of blood serum/in the presence of 20 percent blood serum).
and pharmaceutically acceptable salts thereof. The abbreviation "s.z." means skip zones.

[2] = tested on: Streptococcus pyogenes, strain C203; experiment: Streptococcus pyogenes infection in mice, median effective dose (Example 12); assay type: in vivo; details: infecting challenge 27.9 (XLD50), read-out: ED50
Protocol: The compound 7-[2"-(3"-chloro-4"-fluorophenyltio)acetamido]cephalosporanic acid, prepared as described in Example 8, was tested for antibiotic effectiveness against Streptococcus pyogenes, strain C203 infections in mice, and is compared with the effectiveness of cephaloridine in the same test. Experience has shown with other compounds, some of which are now commercial antibiotics, that a compound effective against Streptococcus pyrogenes, strain C203 in this test will be effective against Staphylococcus aureus strains in clinical use. This is intended as further evidence that the compounds of the method of this invention should be effective antibiotics in clinical situations.
In this test, a standard in vivo test method described by Wick, W. E., F. Streightoff, and D. H. Holmes. 1961, in J. Bacteriol., 81: 233-235 was used. The oral and subcutaneous median effective doses (ED50) necessary to cure 50 percent of the mice were calculated according to the method of Reed and Muench (Reed, L. J., and H. Meunch. 1938. Am. J. Hyg. 27: 493-497) The results were as follows: […]

- MIC ([1]; in the absence of blood serum): 9.3 µg/mL
- MIC ([1]; in the presence of 20 percent blood serum): 12.2 µg/mL
SMILES: CC(=O)OCC1=C(C(=O)O)N2C(=O)C(NC(=O)CSc3ccc(F)c(Cl)c3)C2SC1 (stereo not shown) [Example 8, 7-(3'-chloro-4-fluorophenylthioacetamido)cephalosporanic acid, sodium salt]
- ED50 ([2]; C203, oral): 7 mg/kg
- ED50 ([2]; C203, sc, subcut): < 0.21 mg/kg
